Results from US6649760B2, “Substituted phenyluracils” (priority 2000, dated 2003).

Key:
[1] = log P determination by HPLC (reversed-phase C18), EEC Directive 79/831 Annex V.A8; type: physicochemical; details: reversed-phase C18 HPLC column; a) acidic range: 0.1% aqueous phosphoric acid, acetonitrile, linear gradient 10% to 90% acetonitrile; HPLC C18, 43° C.
Excerpt: (a) Mobile phases for the determination in the acidic range: 0.1% aqueous phosphoric acid, acetonitrile; linear gradient from 10% acetonitrile to 90% acetonitrile—the corresponding test results in Table I are labelled a).
(b) Mobile phases for the determination in the neutral range: 0.01 molar aqueous phosphate buffer solution, acetonitrile; linear gradient from 10% acetonitrile to 90% acetonitrile—the corresponding test results in Table 1 are labelled b).

[2] = test system: weeds; assay: Pre-emergence test (Example A); type: in vivo; details: soil sprayed 24 hours after sowing, rated after three weeks vs untreated control
Experimental: (§1) Solvent: 5 parts by weight of acetone
(§2) Emulsifier: 1 part by weight of alkylaryl polyglycol ether
(§3) To produce a suitable preparation of active compound, 1 part by weight of active compound is mixed with the stated amount of solvent, the stated amount of emulsifier is added and the concentrate is diluted with water to the desired concentration.
Seeds of the test plants are sown in normal soil. After 24 hours, the soil is sprayed with the preparation of active compound such that the particular amount of active compound desired is applied per unit area. The concentration of active compound in the spray liquor is chosen such that the particular amount of active compound desired is applied in 1000 liters of water per hectare.
After three weeks, the degree of damage to the plants is rated in % damage in comparison to the development of the untreated control. The figures denote:
(§4) 0%=no effect (like untreated control)

[3] = test system: weeds; assay: Post-emergence test (Example B); type: in vivo; details: test plants of 5-15 cm sprayed, rated after three weeks vs untreated control
Experimental: as §1, §2, §3
Test plants of a height of 5-15 cm are sprayed with the preparation of active compound such that the particular amounts of active compound desired are applied per unit area. The concentration of the spray liquor is chosen such that the particular amounts of active compound desired are applied in 1000 l of water/ha.
After three weeks, the degree of damage to the plants is rated in % damage in comparison to the development of the untreated control.
as §4

chromatographic logP [1]	Compound	activity against weeds (degree of damage to the plants) [2]	activity against weeds (degree of damage to the plants) [3]
2.47	Cn1c(C(F)(F)F)cc(=O)n(-c2cc(Oc3ncccn3)c(Br)cc2F)c1=O [Example 2, 1-[4-bromo-2-fluoro-5-(pyrimidin-2-yl-oxy)-phenyl]-3-methyl-4-trifluoromethyl-3 ,6-dihydro-2,6-dioxo-1 (2H)-pyrimidine]	very strong activity	very strong activity
1.96	O=c1cc(C(F)(F)F)[nH]c(=O)n1-c1cc(Oc2ncccn2)c(Br)cc1F [Example 1, 1-[4-bromo-2-fluoro-5-(pyrimidin-2-yl-oxy)-phenyl]-4-trifluoromethyl-3,6-dihydro-2,6-dioxo-1 (2H)-pyrimidine]	–	–
